Legend:
[1] = target: T1, membrane-bound A-protein (Am), purified from bovine rod outer segments, N-terminus SEQ ID NO:1 (Bos taurus, UniProt P21457); experiment: ATPase assay (hydrolysis of [γ-32P]ATP); type: biochemical; settings: double reciprocal plots and regression analysis
T1 sequence (P21457 2-202): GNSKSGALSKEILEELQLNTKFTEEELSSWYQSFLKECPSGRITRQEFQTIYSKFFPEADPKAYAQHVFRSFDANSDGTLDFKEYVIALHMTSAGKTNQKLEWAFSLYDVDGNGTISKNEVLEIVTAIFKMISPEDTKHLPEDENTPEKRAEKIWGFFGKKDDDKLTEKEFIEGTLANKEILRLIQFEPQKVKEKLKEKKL
Protocol: (§1) GTP (2.8 Ci/mmol) or 88.8 to 177.5 nM [γ-^32P] […] The stripped ROS membranes (containing rhodopsin as the receptor) were prepared by washing ROS membranes 3 times in buffer C(100 mM NaCl, 20 mM Tris-HCl, pH 7.0, 1 mM MgCl2) and 3 times in water containing 0.01% polyoxyethylene 23 lauryl ether (Brij 35™ nonionic detergent, Sigma Chemical Co.). The stripped membranes were resuspended in buffer D (10 mM Tris-HCl, pH 7.0, 0.1 mM EGTA) prior to use.
(§2) Samples were incubated at room temperature for 5 minutes and quenched with 200 µl ice-cold quench buffer ([…] KH2PO4, 6% Norite A, 10% TCA). The samples were kept on ice for 30 minutes and spun down for 5 minutes in a microcentrifuge. 50 µl aliquots of each supernatant were placed in a vial with 5 ml scintillation fluid and assayed for radioactivity. The hydrolysis of [γ-^32P]-GTP was measured in the presence and absence of photolyzed rhodopsin.
Km and Vmax were determined by construction of double reciprocal plots and regression analysis.

[2] = target: T1, membrane-bound A-protein (Am), purified from bovine rod outer segments, N-terminus SEQ ID NO:1; experiment: GTPase assay (hydrolysis of [γ-32P]GTP); type: biochemical
Protocol: as §1, §2
The apparent Michaelis constant was determined for As and Am by measuring the rate of GTP hydrolysis over a thousand-fold range of substrate concentrations. Km and Vmax were determined by construction of double reciprocal plots and regression analysis.

transducin (Tα) = transducin (Tα) (Bos taurus, UniProt P04695); experiment: GTPase assay, comparison protein; type: biochemical; settings: mol/mol basis, submaximal velocity, in the presence of photoactivated rhodopsin
transducin (Tα), sequence (P04695 2-350 limits assumed): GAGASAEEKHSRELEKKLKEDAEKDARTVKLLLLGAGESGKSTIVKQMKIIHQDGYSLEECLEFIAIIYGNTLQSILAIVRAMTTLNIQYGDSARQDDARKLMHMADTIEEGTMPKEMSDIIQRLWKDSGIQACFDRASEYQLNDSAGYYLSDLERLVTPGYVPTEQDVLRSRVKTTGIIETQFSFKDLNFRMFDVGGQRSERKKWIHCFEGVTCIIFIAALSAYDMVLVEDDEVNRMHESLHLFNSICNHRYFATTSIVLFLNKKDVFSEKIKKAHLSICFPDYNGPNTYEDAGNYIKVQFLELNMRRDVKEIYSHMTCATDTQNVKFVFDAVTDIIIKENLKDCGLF
Protocol: as §1, §2
The GTPase rates for Am and transducin are additive when the two purified proteins are present in approximately equimolar concentrations.

[3] = target: T2, soluble A-protein (As), purified from bovine rod outer segments, N-terminus SEQ ID NO:2 (Bos taurus, UniProt P21457); experiment: GTP analog binding assay (nitrocellulose filtration); settings: 30 minutes, no cofactors
T2 sequence (P21457 2-202): T1 sequence (P21457 2-202)
Protocol: (§3) Assays of the binding of the GTP-analogs Gpp(NH)p and GTPγS (New England Nuclear) by both Am and AS were performed according to the methods of Northup et al. (J. Biol. Chem., 257:11416-11423 (1982)). Binding was carried out in a total volume of 100 µl of solution containing 5 to 10 µg purified A-protein, 15.3 µM 3H-Gpp(NH)p (10 µCi) or 1.32 µM GTPγS^35 (1 µCi) and buffer (100 mM NaCl, 0.1 mM EDTA, 20 mM Tris-HCl, pH 7.0). The samples were vortexed and incubated at 25°C for 30 minutes, quenched with 200 µl ice-cold buffer (0.5 M NaCl, 0.1 M Tris-HCl, 0.1% Tween 80™), and kept on ice for 30 minutes. The samples were placed onto nitrocellulose filters that had been previously washed with 2 ml of the same buffer. The filters were rinsed 5 times with 2 ml ice-cold buffer and assayed for radioactivity.

[4] = target: T1, membrane-bound A-protein (Am), purified from bovine rod outer segments, N-terminus SEQ ID NO:1; experiment: as above; settings: 30 minutes, no cofactors
Protocol: as §3

Question: `Nc1ncnc2c1ncn2[C@@H]1O[C@H](COP(=O)(O)OP(=O)(O)OP(=O)(O)O)[C@@H](O)[C@H]1O` [ATP, adenosine triphosphate] was tested. Which “Vmax:Am ATPase” value [1] did it give?
Answer: Its value is 2.90 (±0.16) pmol/mg A-protein min^-1.

Question: What does the source list for `Nc1nc2c(ncn2[C@@H]2O[C@H](COP(=O)(O)OP(=O)(O)OP(=O)(O)O)[C@@H](O)[C@H]2O)c(=O)[nH]1` [GTP, guanosine triphosphate]?
Answer: Vmax:Am GTPase ([2]; double reciprocal plots and regression analysis): 16.4 nmol/mgAmmin^-1; rate of GTP hydrolysis by Am ([2]; mol/mol basis, submaximal velocity, in the presence of photoactivated rhodopsin): 0.458 GTP sec^-1/Am; rate of GTP hydrolysis by transducin (transducin (Tα)): 0.512 GTP sec^-1/Tα

Question: Which results are given for `Nc1nc2c(ncn2[C@@H]2O[C@H](COP(=O)(O)OP(=O)(O)OP(O)(O)=S)[C@@H](O)[C@H]2O)c(=O)[nH]1` [GTPγS]?
Answer: GTPγS bound by As ([3]; 1.32 µM GTPγS35, 25°C): 0.47 mol GTP Analog/mol Protein; GTPγS bound by Am ([4]; 1.32 µM GTPγS35, 25°C): 0.93 mol GTP Analog/mol Protein

Question: For `Nc1nc2c(ncn2[C@@H]2O[C@H](COP(=O)(O)OP(=O)(O)NP(=O)(O)O)[C@@H](O)[C@H]2O)c(=O)[nH]1` [Gpp(NH)p], which “Gpp(NH)p bound by As” value ([3]; 15.3 µM 3H-Gpp(NH)p, 25°C) is on record?
Answer: The value was 0.29 ± 0.08 mol GTP Analog/mol Protein.

Question: What about the “Gpp(NH)p bound by Am” value ([4]; 15.3 µM 3H-Gpp(NH)p, 25°C) of the same compound?
Answer: Its value is 0.57 ± 0.12 mol GTP Analog/mol Protein.

Source: EP0803065B1, “A-PROTEIN AS A DIAGNOSTIC OF CANCER” (THE SCHEPENS EYE RESEARCH INSTITUTE, priority 1995, dated 1996)
